Measurements: the supplement of paper PMC11061612

Tests used:
EB2 (Burkitt's Lymphoma) = assay: combination Emax (second highest fraction inhibited in the dose matrix, 72 h); higher = more inhibition; extreme values may be limits of the assay
In short: (§1)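 Cell lines grown in DMEM/F12 or RPMI with 10% FBS were plated in 1536-well plates and held 24 hours at 37°C, 5% CO2 before 72 hours of exposure to two-drug dose matrices, with DMSO typically at 0.2%. CellTiter-Glo 2.0 luminescence gave viability, which was converted to inhibition. Vehicle wells were set to 0 and blank wells to 1. Combination Emax is the second-highest inhibition in the matrix, and Bliss excess is the observed combination effect minus the expected EA + EB − EA·EB, where EA and EB are the single-agent effects.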

[1] = test system: 22RV1 (Prostate Carcinoma); assay: as above
In short: as §1

[2] = test system: LU-165 (Small Cell Lung Carcinoma); assay: as above
In short: as §1

IM-9 (Non-Cancerous) = assay: as above
In short: as §1

[3] = test system: JHU-022 (Oral Cavity Carcinoma); assay: as above
In short: as §1

[4] = test system: NCI-H1703 (Squamous Cell Lung Carcinoma); assay: as above
In short: as §1

[5] = test system: SW620 (Colorectal Carcinoma); assay: as above
In short: as §1

[6] = test system: OACp4C (Esophageal Adenocarcinoma); assay: Bliss excess, mean over the matrix (fraction); higher = more synergy
In short: as §1

AU565 (Breast Carcinoma) = assay: as above
In short: as §1

[7] = test system: huH-1 (Hepatocellular Carcinoma); assay: as above
In short: as §1

[8] = test system: NCI-H2228 (Lung Adenocarcinoma); assay: as above
In short: as §1

[9] = test system: ESO26 (Esophageal Adenocarcinoma); assay: as above
In short: as §1

[10] = test system: KYSE-140 (Esophageal Squamous Cell Carcinoma); assay: as above
In short: as §1

NB13 (Neuroblastoma) = assay: as above
In short: as §1

[11] = test system: CA46 (Burkitt's Lymphoma); assay: as above
In short: as §1

KP-N-YN (Neuroblastoma) = assay: as above
In short: as §1

RH-41 (Rhabdomyosarcoma) = assay: as above
In short: as §1

[12] = test system: GA-10 (Burkitt's Lymphoma); assay: as above
In short: as §1

A101D (Melanoma) = assay: as above
In short: as §1

[13] = test system: LS-411N (Colorectal Carcinoma); assay: as above
In short: as §1
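For Bliss excess, mean over the matrix in this document: after 72 h of two-drug dosing.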

SMILES | combination Emax (EB2 (Burkitt's Lymphoma)) | combination Emax [1] | combination Emax [2] | combination Emax (IM-9 (Non-Cancerous)) | combination Emax [3] | combination Emax [4] | combination Emax [5] | Bliss excess [6] | Bliss excess (AU565 (Breast Carcinoma)) | Bliss excess [7] | Bliss excess [8] | Bliss excess [9] | Bliss excess [10] | Bliss excess (NB13 (Neuroblastoma)) | Bliss excess [11] | Bliss excess (KP-N-YN (Neuroblastoma)) | Bliss excess (RH-41 (Rhabdomyosarcoma)) | Bliss excess [12] | Bliss excess (A101D (Melanoma)) | Bliss excess [13]
CN(CCO)CC[C@H](CSc1ccccc1)Nc1ccc(S(=O)(=O)NC(=O)c2ccc(N3CCC([C@@H](O)c4ccccc4-c4ccc(Cl)cc4)CC3)cc2)cc1S(=O)(=O)C(F)(F)F [AZD4320] + Cc1cc2ncnn2cc1Nc1ncc2c(n1)n(C1CCOCC1)c(=O)n2C [AZD7648] (first compound max 1 µM, 7x7, partner max 10 µM) | 0.431 | 0.426 | 0.516 | 0.696 | 0.182 | 0.322 | 0.233 | 0.0447 | -0.0132 | -0.0586 | -0.0231 | -0.0208 | -0.0866 | -0.0223 | -0.0061 | -0.0238 | 0.0309 | -0.0669 | -0.0275 | -0.0132
CN(CCO)CC[C@H](CSc1ccccc1)Nc1ccc(S(=O)(=O)NC(=O)c2ccc(N3CCC([C@@H](O)c4ccccc4-c4ccc(Cl)cc4)CC3)cc2)cc1S(=O)(=O)C(F)(F)F [AZD4320] + Cn1cnc2c(F)c(Nc3ccc(Br)cc3Cl)c(C(=O)NOCCO)cc21 [Selumetinib] (first compound max 1 µM, 7x7, partner max 3 µM) | 0.377 | 0.453 | 0.748 | 1 | 0.629 | 0.298 | 0.942 | 0.0737 | 0.0474 | -0.0106 | 0.0075 | 0.0111 | 0.0178 | 0.0039 | -0.0435 | 0.0076 | 0.0087 | -0.0143 | -0.0099 | 0.0165
Cc1cc2ncnn2cc1Nc1ncc2c(n1)n(C1CCOCC1)c(=O)n2C [AZD7648] + C=CCn1c(=O)c2cnc(Nc3ccc(N4CCN(C)CC4)cc3)nc2n1-c1cccc(C(C)(C)O)n1 [AZD1775] (first compound max 10 µM, partner max 1 µM) | 0.819 | 0.46 | 0.419 | 0.996 | 0.497 | 0.962 | 0.526 | -0.0303 | -0.043 | 0.0313 | 0.0384 | -0.0641 | 0.0004 | -0.0531 | -0.0416 | -0.0428 | 0.0157 | 0.037 | 0.0275 | -0.0318
Cc1cc2ncnn2cc1Nc1ncc2c(n1)n(C1CCOCC1)c(=O)n2C [AZD7648] + CCN(CCO)CCCOc1ccc2c(Nc3cc(CC(=O)Nc4cccc(F)c4)[nH]n3)ncnc2c1 [AZD2811] (first compound max 10 µM, 7x7, partner max 1 µM) | 0.473 | 0.396 | 0.288 | 0.943 | 0.4 | 0.688 | 0.248 | 0.0003 | 0.0433 | 0.0008 | -0.0127 | -0.0299 | 0.033 | 0.056 | 0.0249 | 0.0461 | 0.0902 | 0.112 | -0.0404 | 0.0255
Cc1cc2ncnn2cc1Nc1ncc2c(n1)n(C1CCOCC1)c(=O)n2C [AZD7648] + CN(C)CCCOc1ccc(-c2ccc3ncc4c(c3c2)n(C2CCOCC2)c(=O)n4C)cn1 [AZD0156] (first compound max 10 µM, 7x7, partner max 1 µM) | 0.484 | 0.468 | 0.346 | 0.456 | 0.3 | 0.521 | 0.229 | 0.0043 | 0.0589 | 0.0674 | 0.0707 | -0.031 | -0.0325 | -0.0173 | -0.0193 | 0.0088 | 0.0197 | -0.0067 | -0.0016 | -0.0081
Cc1cc2ncnn2cc1Nc1ncc2c(n1)n(C1CCOCC1)c(=O)n2C [AZD7648] + C[C@@H]1COCCN1C2=NC(=NC(=C2)C3(CC3)[S@](=N)(=O)C)C4=C5C=CNC5=NC=C4 [AZD6738] (first compound max 10 µM, 7x7, partner max 10 µM) | 0.803 | 0.518 | 0.317 | 0.964 | 0.578 | 0.901 | 0.437 | -0.0284 | 0.0393 | 0.02 | -0.0156 | -0.0389 | -0.0248 | -0.0124 | 0.0493 | -0.0083 | 0.0098 | 0.0131 | -0.0272 | -0.0185
Cc1cc2ncnn2cc1Nc1ncc2c(n1)n(C1CCOCC1)c(=O)n2C [AZD7648] + O=C(c1cc(Cc2n[nH]c(=O)c3ccccc23)ccc1F)N1CCN(C(=O)C2CC2)CC1 [Olaparib] (first compound max 10 µM, 7x7, partner max 10 µM) | 0.526 | 0.346 | 0.143 | 0.51 | 0.172 | 0.417 | 0.159 | -0.0203 | -0.0658 | -0.0557 | -0.0728 | -0.003 | -0.0146 | -0.0247 | -0.0518 | 0.0332 | -0.0293 | -0.0398 | -0.0478 | -0.0195
Cc1nc(Nc2ncc(C(=O)Nc3c(C)cccc3Cl)s2)cc(N2CCN(CCO)CC2)n1 [Dasatinib] + CC(=O)Nc1cccc(-n2c(=O)n(C3CC3)c(=O)c3c(Nc4ccc(I)cc4F)n(C)c(=O)c(C)c32)c1 [Trametinib] (first compound max 2 µM, 7x7, partner max 1 µM) | 0.531 | 0.361 | 0.144 | 0.876 | 0.681 | 0.782 | 0.694 | 0.01 | -0.0345 | -0.0076 | -0.049 | -0.0892 | -0.132 | -0.0347 | -0.0608 | -0.0983 | -0.0946 | 0.0228 | 0.0947 | 0.0509
COc1cc2ncnc(Nc3ccc(F)c(Cl)c3)c2cc1OCCCN1CCOCC1 [Gefitinib] + CC(C)n1c(=O)n(C)c2cnc3cc(F)c(-c4ccc(OCCCN5CCCCC5)nc4)cc3c21 [AZD1390] (first compound max 10 µM, 7x7, partner max 0.3 µM) | 0.38 | 0.148 | 0.173 | 0.424 | 0.626 | 0.305 | 0.0744 | -0.067 | -0.0219 | -0.0593 | -0.0704 | -0.0832 | -0.0919 | -0.0433 | -0.0529 | -0.045 | -0.0378 | -0.032 | -0.083 | -0.0463
COc1cc2c(cc1OCCCCCOc1cc3c(cc1OC)C(=O)N1C=C(C)C[C@H]1C=N3)N=C[C@@H]1CC(C)=CN1C2=O [SG3199] + O=C(c1cc(Cc2n[nH]c(=O)c3ccccc23)ccc1F)N1CCN(C(=O)C2CC2)CC1 [Olaparib] (first compound max 0.001 µM, 7x7, partner max 10 µM) | 0.278 | 0.095 | 0.0933 | 0.38 | 0.0543 | 0.0514 | 0.144 | -0.0268 | -0.0315 | -0.0278 | -0.0607 | 0.0119 | -0.0186 | -0.0143 | -0.0357 | -0.0387 | 0.0396 | -0.0335 | -0.0365 | -0.0255
C[C@@H](c1ccc2nccn2c1)n1nnc2ncc(-c3cnn(C)c3)nc21 [Savolitinib] + CC1(C)CCC(CN2CCN(c3ccc(C(=O)NS(=O)(=O)c4ccc(NCC5CCOCC5)c([N+](=O)[O-])c4)c(Oc4cnc5[nH]ccc5c4)c3)CC2)=C(c2ccc(Cl)cc2)C1 [Venetoclax] (first compound max 1 µM, 7x7, partner max 1 µM) | 0.153 | 0.214 | 0.221 | 0.385 | 0.257 | 0.139 | 0.124 | -0.0367 | -0.0255 | -0.0804 | -0.0605 | -0.0547 | -0.0257 | -0.073 | -0.0366 | -0.0927 | -0.0483 | -0.0485 | -0.0598 | -0.0349
C[C@@H](c1ccc2nccn2c1)n1nnc2ncc(-c3cnn(C)c3)nc21 [Savolitinib] + Cc1c2c(nn1C)CSCc1cc(n(C)n1)CSc1cc(c3ccccc3c1)OCCCc1c(C(=O)O)n(C)c3c-2c(Cl)ccc13 [AZD5991] (first compound max 1 µM, 7x7, partner max 1 µM) | 0.208 | 0.34 | 0.213 | 0.573 | 0.132 | 0.852 | 0.167 | -0.0328 | 0.0125 | -0.0586 | -0.0577 | -0.0026 | -0.0301 | -0.0206 | -0.03 | 0.0028 | 0.0471 | -0.0354 | -0.0202 | -0.0232
